Remaining activity data for 30 compounds are collected here from publication PMC8286840, “Identifying SARS-CoV-2 antiviral compounds by screening for small molecule inhibitors of Nsp3 papain-like protease” (Biochemical Journal, 2021).

The target in assay [1] is T1, SARS-CoV-2 PLpro (nsp3 1564–1878) (Severe acute respiratory syndrome coronavirus 2, UniProt P0DTD1). The assay can be described thus: biochemical. More on the design: FRET-quenched peptide (Pro3) cleavage by PLpro, 10 min pre-incubation, slope over 20 min, normalised to no-compound control. The conditions noted are these: low concentration screen, read-out: % of control remaining.

The target in assay [2] is T1, SARS-CoV-2 PLpro (nsp3 1564–1878). The assay can be described thus: biochemical. More on the design: FRET-quenched peptide (Pro3) cleavage by PLpro, 10 min pre-incubation, slope over 20 min, normalised to no-compound control. The conditions noted are these: high concentration screen, read-out: % of control remaining.

Where a name gives a salt, the structure may show the parent alone. Read-outs that look alike come from different tables or passages of the source.

On to `CSc1ccc2c(c1)N(CCC1CCCCN1C)c1ccccc1S2` (centres unmarked) [Thioridazine (hydrochloride)], for which the remaining activity at 1.25 µM in assay [1] (Well no.=7376) stood at 97.9%. The remaining activity at 3.75 µM in assay [2] (Well no.=7376) is 98.1%.
With `CSc1ccc2c(c1)N(CCC1CCCCN1C)c1ccccc1S2` (centres unmarked) [Thioridazine hydrochloride], the remaining activity at 1.25 µM in assay [1] (Well no.=1422) was 96.4%. The remaining activity at 3.75 µM in assay [2] (Well no.=1422) turned out to be 95.6%.
Take `CSc1ccc2c(c1)N(CCC1CCCCN1C)c1ccccc1S2` (centres unmarked) [Thioridazine]: in assay [1] (Well no.=2140), the remaining activity at 1.25 µM came out at 97.3%. In addition, the remaining activity at 3.75 µM in assay [2] (Well no.=2140) worked out at 96.6%.
With `CN1CCN(CC/C=C2/c3ccccc3Sc3ccc(S(=O)(=O)N(C)C)cc32)CC1` [Thiothixene hydrochloride], in assay [1] (Well no.=1281), the remaining activity at 1.25 µM was 106%. The remaining activity at 3.75 µM in assay [2] (Well no.=1281) was 112%.
Consider `NC(N)=S` [Thiourea], for which the remaining activity at 1.25 µM in assay [1] (Well no.=4097) was determined as 98.1%. Also, the remaining activity at 3.75 µM in assay [2] (Well no.=4097) was determined as 101%.
For the compound `CCCCC[C@H](O)/C=C/[C@H]1OC(O)C[C@H](O)[C@@H]1C/C=C\CCCC(=O)O` (some centres unmarked) [Thromboxane B2], the remaining activity at 1.25 µM in assay [1] (Well no.=4286) worked out at 99.3%. Also, the remaining activity at 3.75 µM in assay [2] (Well no.=4286) came out at 98.5%.
Regarding `Cc1cn([C@H]2C[C@H](O)[C@@H](CO)O2)c(=O)[nH]c1=O` [Thymidine], the remaining activity at 1.25 µM in assay [1] (Well no.=7349) worked out at 104%; in assay [1] (Well no.=7770) it was 94.3%. For the same compound, the results for the remaining activity at 3.75 µM in assay [2] (Well no.=7349) and in assay [2] (Well no.=7770) were 106% and 97.4%, respectively.
On to `Cc1c[nH]c(=O)[nH]c1=O` [Thymine], for which, in assay [1] (Well no.=6629), the remaining activity at 1.25 µM is 103%. In addition, the remaining activity at 3.75 µM in assay [2] (Well no.=6629) is 108%.
`CC1=CC(=O)C(C(C)C)=CC1=O` [Thymoquinone]: the remaining activity at 1.25 µM came out at 101% in assay [1] (Well no.=3567) and 102% in assay [1] (Well no.=4095). For the same compound, the results for the remaining activity at 3.75 µM in assay [2] (Well no.=3567) and in assay [2] (Well no.=4095) were 102% and 101%, respectively.
On to `CCN(CC)CCNC(=O)c1cc(S(C)(=O)=O)ccc1OC` [Tiapride hydrochloride], for which the remaining activity at 1.25 µM in assay [1] (Well no.=1185) turned out to be 101%. Further, in assay [2] (Well no.=1185), the remaining activity at 3.75 µM was 100%.
Consider `C#C[C@]1(O)CC[C@H]2[C@@H]3[C@H](C)CC4=C(CCC(=O)C4)[C@H]3CC[C@@]21C` [Tibolone], for which the remaining activity at 1.25 µM in assay [1] (Well no.=1954) came out at 97.8%. Further, in assay [2] (Well no.=1954), the remaining activity at 3.75 µM worked out at 98.3%.
For `CCCSc1nc(N[C@@H]2C[C@H]2c2ccc(F)c(F)c2)c2nnn([C@@H]3C[C@H](OCCO)[C@@H](O)[C@H]3O)c2n1` [Ticagrelor], the values for the remaining activity at 1.25 µM in assay [1] (Well no.=4738) and in assay [1] (Well no.=6329) were 105% and 101%, respectively. The remaining activity at 3.75 µM in assay [2] (Well no.=4738) is 108%; in assay [2] (Well no.=6329) it was 102%.
For the compound `CC1(C)S[C@@H]2[C@H](NC(=O)[C@H](C(=O)O)c3ccsc3)C(=O)N2[C@H]1C(=O)O` [Ticarcillin (disodium)], the remaining activity at 1.25 µM in assay [1] (Well no.=7782) stood at 105%. Moreover, in assay [2] (Well no.=7782), the remaining activity at 3.75 µM turned out to be 109%.
For the compound `Clc1ccccc1CN1CCc2sccc2C1` [Ticlopidine (hydrochloride)], the remaining activity at 1.25 µM came to 107% in assay [1] (Well no.=6270) and 108% in assay [1] (Well no.=8213). Moreover, the remaining activity at 3.75 µM in assay [2] (Well no.=6270) is 109%; in assay [2] (Well no.=8213), 100%.
For the compound `Clc1ccccc1CN1CCc2sccc2C1` [Ticlopidine], the remaining activity at 1.25 µM in assay [1] (Well no.=1746) came to 92.5%. The remaining activity at 3.75 µM in assay [2] (Well no.=1746) worked out at 92.5%.
As to `COc1ccc2cc(-c3nc(-c4ccc([S+](C)[O-])cc4)[nH]c3-c3ccncc3)ccc2c1` (centres unmarked) [Tie2 kinase inhibitor], the remaining activity at 1.25 µM in assay [1] (Well no.=4965) came to 91%. In addition, in assay [2] (Well no.=4965), the remaining activity at 3.75 µM is 90.7%.
For the compound `O=C(O)COc1ccc(C(=O)c2cccs2)c(Cl)c1Cl` [Tienilic Acid], the remaining activity at 1.25 µM in assay [1] (Well no.=5851) is 105%. The remaining activity at 3.75 µM in assay [2] (Well no.=5851) came out at 102%.
On to `CN(C)c1cc(NC(=O)CNC(C)(C)C)c(O)c2c1C[C@H]1C[C@H]3[C@H](N(C)C)C(O)=C(C(N)=O)C(=O)[C@@]3(O)C(O)=C1C2=O` [Tigecycline], for which, in assay [1] (Well no.=4813), the remaining activity at 1.25 µM came to 99%. Also, the remaining activity at 3.75 µM in assay [2] (Well no.=4813) amounted to 107%.
`CC[C@H]1OC(=O)C[C@@H](O)[C@H](C)[C@@H](O[C@@H]2O[C@H](C)[C@@H](O)[C@H](N(C)C)[C@H]2O)[C@@H](CCN2C[C@H](C)C[C@H](C)C2)C[C@@H](C)C(=O)/C=C/C(C)=C/[C@@H]1CO[C@@H]1O[C@H](C)[C@@H](O)[C@@H](OC)[C@H]1OC` [Tilmicosin]: in assay [1] (Well no.=4746), the remaining activity at 1.25 µM was determined as 97.6%. Also, in assay [2] (Well no.=4746), the remaining activity at 3.75 µM turned out to be 96.6%.
On to `CCS(=O)(=O)CCn1c([N+](=O)[O-])cnc1C` [Tinidazole], for which, in assay [1] (Well no.=1958), the remaining activity at 1.25 µM is 93%. Further, in assay [2] (Well no.=1958), the remaining activity at 3.75 µM turned out to be 94.1%.
As to `Clc1ccc(C(Cn2ccnc2)OCc2ccsc2Cl)c(Cl)c1` (centres unmarked) [Tioconazole], the remaining activity at 1.25 µM in assay [1] (Well no.=1956) was found to be 103%. Moreover, in assay [2] (Well no.=1956), the remaining activity at 3.75 µM stood at 104%.
`C/N=C(/NC#N)NCCSCc1csc(NC(=N)N)n1` [Tiotidine]: the remaining activity at 1.25 µM in assay [1] (Well no.=1877) worked out at 98.5%. Besides, in assay [2] (Well no.=1877), the remaining activity at 3.75 µM came to 98.9%.
In the case of `C[N+]1(C)[C@@H]2C[C@@H](OC(=O)C(O)(c3cccs3)c3cccs3)C[C@H]1[C@@H]1O[C@@H]12` [Tiotropium (Bromide)], the remaining activity at 1.25 µM in assay [1] (Well no.=7533) amounted to 96.7%. Moreover, the remaining activity at 3.75 µM in assay [2] (Well no.=7533) is 95.1%.
For the compound `C[N+]1(C)[C@@H]2C[C@@H](OC(=O)C(O)(c3cccs3)c3cccs3)C[C@H]1[C@@H]1O[C@@H]12` [Tiotropium Bromide hydrate], the remaining activity at 1.25 µM in assay [1] (Well no.=4912) is 100%. Also, the remaining activity at 3.75 µM in assay [2] (Well no.=4912) was determined as 95.8%.
As to `C[N+]1(C)[C@@H]2C[C@@H](OC(=O)C(O)(c3cccs3)c3cccs3)C[C@H]1[C@@H]1O[C@@H]12` [Tiotropium Bromide], the remaining activity at 1.25 µM in assay [1] (Well no.=2108) was found to be 102%. Besides, the remaining activity at 3.75 µM in assay [2] (Well no.=2108) was 102%.
For the compound `O=c1oc2cc(O)ccc2s1` [Tioxolone], in assay [1] (Well no.=4952), the remaining activity at 1.25 µM was 95.3%. For the same compound, the remaining activity at 3.75 µM in assay [2] (Well no.=4952) was 91.8%.
Take `N=C1CCCN1Cc1[nH]c(=O)[nH]c(=O)c1Cl` [Tipiracil hydrochloride]: the remaining activity at 1.25 µM in assay [1] (Well no.=8154) turned out to be 95.9%. The remaining activity at 3.75 µM in assay [2] (Well no.=8154) was determined as 95.8%.
For `O=C(O)C(=O)c1cn(Cc2ccccc2)c2ccc(-c3ccc(OC(F)(F)F)cc3)cc12` [Tiplaxtinin], the remaining activity at 1.25 µM in assay [1] (Well no.=5648) is 92.2%. The remaining activity at 3.75 µM in assay [2] (Well no.=5648) was 93.4%.
In the case of `CCCCS(=O)(=O)N[C@@H](Cc1ccc(OCCCCC2CCNCC2)cc1)C(=O)O` [Tirofiban hydrochloride monohydrate], the remaining activity at 1.25 µM in assay [1] (Well no.=5469) was found to be 95.9%. In addition, the remaining activity at 3.75 µM in assay [2] (Well no.=5469) is 99.6%.
`COc1cc2nccc(Oc3ccc(NC(=O)Nc4cc(C)on4)c(Cl)c3)c2cc1OC` [Tivozanib]: the remaining activity at 1.25 µM in assay [1] (Well no.=2932) stood at 96.1%. Also, the remaining activity at 3.75 µM in assay [2] (Well no.=2932) is 99%.
